Experiments:
[1] = tested on: MDCK cells; test: Cytotoxicity, cell counting kit-8 assay, MDCK normal cell line; format: cell-based; conditions: Canis lupus familiaris, non-malignant cell line, 24 h treatment, mean n = 3
Protocol: (§1) Three human cancer cell lines (A549, HepG2 and PC3) and normal cell line (MDCK) were obtained from the ATCC (Manassas, VA, USA) and grown on Eagle’s minimum essential medium (EMEM, GIBCO, Waltham, MA, USA) supplemented with F12 medium containing 10% FBS, 100 IU/mL penicillin and 100 μg/mL streptomycin [17].
(§2) Viability of the human cancer cell lines and normal cell line treated with different concentrations of A. cinnamomea extracts, subfractions, and isolates was evaluated using the cell counting kit-8 assay. Briefly, a total of 5 × 10^3 cells/well (A549, HepG2, PC3, or MDCK cells) were seeded into 96-well plates for 12 h, and the cells were treated with various concentrations of the isolated compounds (0.01–100 μM, double dilution method) for 24 h. The original medium was removed, 10% of the cell counting kit-8 in PBS was added to each well, and the plates were incubated for 2 h. The absorbance was measured at 540 nm using an enzyme-linked immunosorbent assay (ELISA) plate reader.
(§3) All experiments were carried out in triplicate, and each experiment was repeated three times. Data analysis was carried out using SPSS statistical package version 18.0 (SPSS, Inc., Armonk, NY, USA). The IC50 values (the concentration of drug necessary to induce 50% inhibition) were measured for all of the tested drugs using the Probit test in the SPSS software. The cell cycle distribution values of mean and standard deviation (mean ± SD) and 95% confidence intervals (CI) of means to verify the statistical significance of all parameters were calculated. The p-values of < 0.05 were adopted as statistically significant. All data are presented in this report as means ± SD of three replicates from three separate experiments.

[2] = tested on: A549 cells; test: Cytotoxicity, cell counting kit-8 assay, A549; format: cell-based; conditions: Homo sapiens, mean n = 3
Protocol: as §1, §2, §3

[3] = tested on: HepG2 cells; test: Cytotoxicity, cell counting kit-8 assay, HepG2; format: cell-based; conditions: Homo sapiens, 24 h treatment, mean n = 3
Protocol: as §1, §2, §3

[4] = tested on: PC3 cells; test: Cytotoxicity, cell counting kit-8 assay, PC3; format: cell-based; conditions: Homo sapiens, PC-3, mean n = 3
Protocol: as §1, §2, §3

[5] = tested on: HepG2 cells; test: Cell cycle distribution analysis by flow cytometry (PI staining); format: cell-based, human; conditions: for G1 (%) / G2-M (%) / S (%) / sub G1 (%): 24 h, HepG2, mean ± SD
Protocol: Stock solutions of 4-acetylantrocamol LT3 (20 mM) were prepared by dissolving them in DMSO, and appropriate working dilutions were prepared with the cell culture medium prior to the experiments. For cell cycle distribution analysis, HepG2 cells were treated with DMSO (control) and 4-acetylantrocamol LT3 for 24 h. The cells were then fixed in ice-cold 70% methanol for overnight. After an additional wash with PBS, the cell pellets were stained with 1 mL of propidium iodide (PI) staining solution containing 200 μg of PI in 1 mL of PBS containing 2 mg of DNase free RNase for 30 min. Acquisition and analysis were performed by flow cytometry (FACSCalibur flow cytometer, Becton, Dickinson and Co., Franklin Lakes, NJ, USA) with excitation at 488 nm. Data on each sample represent the percentage of cells in the sub-G1, G1, S, G2/M phases of the cell cycle, respectively.
as §3

[6] = tested on: A549, HepG2, and PC3 cell lines; test: Cytotoxicity against three human cancer cell lines (summary statements); format: cell-based; conditions: in words
Protocol: as §1, §2, §3

| SMILES | IC50 [1] [µM] | IC50 ([2]; A549, 24 h, 24 h treatment) [µM] | IC50 [3] [µM] | IC50 ([4]; 24 h treatment) [µM] | also measured |
| --- | --- | --- | --- | --- | --- |
| COC1=CC(=O)C(CC=C(C)CCC=C(C)CCC=C(C)C)=C(C)C1=O [Compound 1, 5-methoxy-3-methyl-2-(3,7,11-trimethyldodeca-2,6,10-trienyl)cyclohexa-2,5-diene-1,4-dione] | > 100 | 0.382 | > 100 | 0.014 |  |
| COC1=C(OC)[C@H](OC(C)=O)[C@H](C/C=C(\C)CC/C=C(\C)CCC=C(C)C)[C@@H](C)C1=O [Compound 6, 4-acetylantroquinonol] | 41.6 | 0.611 | 0.075 | 2.31 |  |
| COC1=C(OC)[C@H](OC(C)=O)[C@H](C/C=C(\C)CC/C=C(\C)C[C@H]2C[C@@H](C)C(=O)O2)[C@@H](C)C1=O [Compound 8, 4-acetylantroquinonol B] | > 100 | 35.9 | > 100 | 20.3 |  |
| COC1=C(OC)[C@H](OC(C)=O)[C@H](C/C=C(\C)CC/C=C(\C)C/C=C/C(C)(C)O)[C@@H](C)C1=O [Compound 2, 4-acetylantrocamol LT3] | > 100 | 0.027 | 0.128 | 4.29 | G1 (%) ([5]; 1 μM): 37.4 ± 4.2%; G2-M (%) ([5]; 1 μM): 33.6 ± 4.7%; S (%) ([5]; 1 μM): 15.4 ± 1.6%; sub G1 (%) ([5]; 1 μM): 6.0 ± 0.7%; G1 (%) ([5]; 10 μM): 32.9 ± 2.4%; G2-M (%) ([5]; 10 μM): 33.6 ± 5.6%; S (%) ([5]; 10 μM): 19.3 ± 4.9%; sub G1 (%) ([5]; 10 μM): 9.2 ± 2.1%; sub-G1 phase accumulation compared with control cells ([5]; HepG2, 24 h, dose dependent): 4–7 fold |
| CC(=O)O[C@H]1C(=O)[C@@]2(C)[C@H]([C@H](OC(=O)c3ccccc3)[C@]3(O)C[C@H](OC(=O)[C@H](O)[C@@H](NC(=O)c4ccccc4)c4ccccc4)C(C)=C1C3(C)C)[C@]1(OC(C)=O)CO[C@@H]1C[C@@H]2O [Taxol, reference compound] |  |  |  |  | IC50 ([2]; A549, positive control, unit given in row label): 0.000354 µM; IC50 ([4]; positive control, unit given in row label): 0.000461 µM |
| CC(C)=CCOc1ccc(C2=C(CC(C)C)C(=O)OC2=O)cc1 [Compound 11, antrodin A] | > 100 | > 100 | 90.4 | > 100 | activity against the cancer cell lines [6]: poor activity |
| COc1cc(C)c(OC)c2c1OCO2 [Compound 9, 4,7-dimethoxy-5-methyl-1,3-benzodioxole] | > 100 | > 100 | > 100 | 13.3 | activity against the cancer cell lines [6]: poor activity |
| COc1cc(C)c(O)c(OC)c1O [Compound 10, 2,4-dimethoxy-6-methyl-benzene-1,3-diol] | > 100 | > 100 | > 100 | > 100 | activity against the cancer cell lines [6]: poor activity |
| COC1=C(OC)[C@H](O)[C@H](C/C=C(\C)CC/C=C(\C)C/C=C/C(C)(C)O)[C@@H](C)C1=O [Compound 4, antrocamol LT3] | > 100 |  | 0.106 | 0.001 |  |
| COC1=C(OC)C(=O)C(C/C=C(\C)CC/C=C(\C)CCC=C(C)C)=C(C)C1=O [Compound 3, quinone Q3] | > 100 | 4.16 | > 100 | 0.06 |  |
| COC1=C(OC)[C@H](O)[C@H](C/C=C(\C)CC/C=C(\C)C[C@H]2C[C@@H](C)C(=O)O2)[C@@H](C)C1=O [Compound 7, antroquinonol B] | > 100 | 6.03 | 21.4 | 1.03 |  |
| COC1=C(OC)[C@H](O)[C@H](C/C=C(\C)CC/C=C(\C)CCC=C(C)C)[C@@H](C)C1=O [Compound 5, antroquinonol] | 10.5 | 0.421 | 0.044 | 0.073 |  |
| COc1cc([C@@H]2c3cc4c(cc3[C@@H](O[C@@H]3O[C@@H]5CO[C@@H](C)O[C@H]5[C@H](O)[C@H]3O)[C@H]3COC(=O)[C@H]23)OCO4)cc(OC)c1O [Vepesid, reference compound] |  |  | 4.05 |  |  |
